Assay results published in US8759364B2, “Methods of treating bone mass diseases” (The Trustees of Columbia University in the City of New York, priority 2008, dated 2014).

Key:
[1] = tested on: peripheral serotonin; assay: Effect of oral CBMIDA on peripheral serotonin production in mice (serum serotonin ELISA), Example 1; assay type: in vivo
Method: (§1) The ability of selective TPH1 inhibitor CBMIDA to reduce peripheral serotonin measured in serum was tested. Either 250 or 500 mg/kg doses of CBMIDA were administered orally twice in 20 hours to 4 week old mice, 4-5 mice per group. As a control, some mice were untreated and some received 250 mg/kg pCPA orally. […] CBMIDA has been reported to be an EDTA analog that increases osteoid volume in beagle dogs and induces proliferation of rat calvarial-derived osteoblasts in vitro (Xie, et al., Bioorganic & Medicinal Chemistry Letters 15 (2005) 3267-3270, incorporated herein by reference in its entirety).
(§2) One month old C57Bl/6 inbred male mice, weighing 15-16 g were used in the experiments. Animals were housed under 12 h light/12 h dark conditions in a room with controlled temperature (22° C.) and humidity (60%). Mice had ad libitum access to food and water, and were used after a minimum of 4 days of acclimatization to the housing conditions. All experiments were conducted following Columbia University Guidelines for the Animal Use and Care of laboratory mice.
(§3) Before the experiments, animals were separated into individual cages one day prior to the experiment. Compounds were fed orally (gavage) to the mouse, calculated according to the weight of the mouse, twice a day at 1700 h and at 1100 h. […] This route created two potential barriers for the compound to reach the brain. […] Control animals received the same volume of vehicle. Blood was collected through heart puncture on isofluorane-anaesthesized animals and allowed to clot for 5 minutes on ice. The serum was separated, snap chilled in liquid nitrogen and frozen at −80° C. till analyzed. Brainstems from all the animals were collected and processed for brain serotonin measurement through HPLC.
(§4) The Serotonin ELISA kit obtained from the Fitzgerald company was used to measure derivatized serotonin from serum. Derivatization is part of the sample preparation. Serotonin present in the serum was first quantitatively acylated into N-Acylserotonin using the acylation reagent. The principle of the assay is based on competitive ELISA, wherein serotonin that is bound to the solid phase of the plate and the N-acylserotonin compete for the fixed number of antiserum binding sites. When the reaction is in equilibrium, free antigen and free antigen-antiserum complexes are removed by washing.
The antibody bound to the solid phase serotonin is then detected using antirabbit/peroxidase. The substrate TMB/Peroxidase reaction is read at 450 nm. The amount of antibody bound to the solid phase serotonin is inversely proportional to the concentration of serotonin in the sample.
Catechol-3,6-bis methyleneiminodiacetic acid (CBMIDA) (basic structure is an EDTA-like compound and the catechol ring is at the centre) synthesized at the Columbia University Chemistry division, and para-chlorophenylalanine (pCPA) obtained from Sigma Aldrich Corp. were used. Each compound was dissolved with twice molar solution of NaHCO3 in water and given to mouse orally at 250 and 500 mg/kg/dose.

[2] = tested on: serotonin in the brain; assay: Brain serotonin and blood brain barrier crossing after oral feeding; assay type: in vivo, mice
Method: as §1, §3

[3] = tested on: peripheral serotonin production; assay: Pilot study of tryptophan hydroxylase inhibitors on peripheral serotonin production in ovariectomized mice, Example 12; assay type: in vivo; details: pCPA used as control; FIG. 15
Method: as §2, with “6-week” for “One month”, “female” for “male”, “12-14 g,” for “15-16 g”
Animals were separated into different groups one day prior to the experiments. Mice were ovariectomized (OVX) under anaesthesia (Avertin). Compounds were fed orally (Gavage) twice a day at 1700 h and at 1100 h for the pilot study while for the long term study compounds were given at 1700 h once a day. […] This route creates two potential barriers for the compound to reach the brain. […] Control animals received the same volume of vehicle. Blood was collected through heart puncture on isofluorane-anaesthesized animals, allowed to clot for 5 minutes on ice and then serum was separated, snap chilled in liquid nitrogen and frozen at −80° C. till analyzed. Mice were observed daily for any physical or behavioral abnormality during the course of investigation.
• Group 1: Vehicle • Group 2: Compound 1 • Group 3: Compound 2 • Group 4: Compound 3 • Group 5: Compound 4 (LP-533401) Experiment II: Effect of Compounds 1 and 4 on Protection from OVX-Induced Bone Loss Protocol 1: Gavage Feeding of the Compounds Will be Started 1 Day after OVX for 6 Weeks • Group 1: Sham treatment • Group 2: OVX • Group 3: OVX+Compound 1 (250 mg/kg) • Group 4: OVX+Compound 1 (500 mg/kg) • Group 5: OVX+Compound 4 (250 mg/kg) Protocol 2: Gavage Feeding of the Compounds Will be Started 2 Weeks after OVX for 6 Weeks • Group 1: Sham treatment • Group 2: OVX • Group 3: OVX+Compound 1 (250 mg/kg) • Group 4: OVX+Compound 1 (500 mg/kg) • Group 5: OVX+Compound 4 (250 mg/kg) Protocol 3: Gavage Feeding of the Compounds Will be Started 4 Weeks after OVX for 6 Weeks • Group 1: Sham treatment • Group 2: OVX • Group 3: OVX+Compound 1 (250 mg/kg) • Group 4: OVX+Compound 1 (500 mg/kg) • […] Serotonin Measurement in Serum
as §4, with “acylated” for “acylated into N-Acylserotonin”, “reagent into N-Acylserotonin.” for “reagent.”, “washing. The antibody bound to the solid phase serotonin is then detected by anti-rabbit/peroxidase. The substrate TMB/Peroxidase reaction is read at 450 nm. The amount of antibody bound to the solid phase serotonin is inversely proportional to the concentration of serotonin in the sample.” for “washing.”
We used Catechol-3,6-bis methyleneiminodiacetic acid [(CBMIDA) Compound 1: basic structure is a EDTA-like compound and the catechol ring is at the center)] synthesized at the Columbia University Chemistry division and para-Chlorophenylalanine (pCPA) obtained from Sigma Aldrich Corp. for our experiments. Compounds were dissolved with twice molar solution of NaHCO3 in water and given to mice orally at 250 and 500 mg/kg/dose. Compounds 2 and 3 were dissolved in water.

## NC(Cc1ccc(Cl)cc1)C(=O)O (centres unmarked) [pCPA, para-chlorophenylalanine]
[1]; 250 mg/kg orally twice in 20 hours, 4 week old mice
  reduction of peripheral serotonin measured in serum: ~50%
[1]; pCPA used as control, oral, FIG. 11
  serum serotonin levels decreased to % below normal range: > 60%
[2]; 250 mg/kg orally
  serotonin in the brain: did not decrease
[2]; at the amounts used (250 mg/kg)
  crossing of the blood brain barrier: did not cross
[3]
  serotonin levels decreased to % below normal range: 60%
